{
  "source": "PubChem BioAssay AID651731",
  "about": "(NMMLSC, 2012)",
  "note": "The source made the active and inactive calls. The rule behind the calls is not given here.",
  "data": [
    {"molecular_target": "not listed separately", "assay": "vacuolar alkalinization by V-ATPase blockade – S. cerevisiae, BCECF dye, powder sets 2-3, dose response (AID 651731)", "details": "S. cerevisiae vacuolar pH, BCECF fluorescence; at 100 µM (top of the series)", "values": [
      {"compound": "Nc1cncc(C(=O)Nc2ccccc2N2CCOCC2)n1", "response (vacuolar pH increase)": "inactive"},
      {"compound": "CC(C)(C)c1ccc(C(=O)Nc2ccccc2N2CCOCC2)o1", "response (vacuolar pH increase)": "inactive"},
      {"compound": "CC(C)(C)c1ccc(C(=O)N2CCN(c3nc4ccc(F)cc4s3)CC2)o1", "response (vacuolar pH increase)": "inactive"},
      {"compound": "NC(=O)c1ccc(C(=O)N2CCN(c3nc4ccc(F)cc4s3)CC2)o1", "response (vacuolar pH increase)": "inactive"},
      {"compound": "COCc1cccc(C(=O)N2CCN(c3nc4ccc(F)cc4s3)CC2)c1", "response (vacuolar pH increase)": "inactive"},
      {"compound": "O=C(Nc1ccccc1N1CCOCC1)c1cc(Cl)ccn1", "response (vacuolar pH increase)": "inactive"},
      {"compound": "N#Cc1cccc(C(=O)N2CCN(c3nc4ccc(F)cc4s3)CC2)c1", "response (vacuolar pH increase)": "inactive"},
      {"compound": "O=C(Nc1ccccc1N1CCOCC1)c1ccc(C(F)(F)F)o1", "response (vacuolar pH increase)": "inactive"},
      {"compound": "Nc1ncc(C(=O)N2CCN(c3nc4ccc(F)cc4s3)CC2)o1", "response (vacuolar pH increase)": "inactive"},
      {"compound": "O=C(c1cc(CO)ccn1)N1CCN(c2nc3ccc(F)cc3s2)CC1", "response (vacuolar pH increase)": "inactive"},
      {"compound": "N#Cc1ccnc(C(=O)N2CCN(c3nc4ccc(F)cc4s3)CC2)c1", "response (vacuolar pH increase)": "inactive"},
      {"compound": "NS(=O)(=O)c1ccc(C(=O)N2CCN(c3nc4ccc(F)cc4s3)CC2)o1", "response (vacuolar pH increase)": "inactive"},
      {"compound": "CS(=O)(=O)Cc1cccc(C(=O)N2CCN(c3nc4ccc(F)cc4s3)CC2)c1", "response (vacuolar pH increase)": "inactive"},
      {"compound": "N#Cc1ccnc(C(=O)Nc2ccccc2N2CCOCC2)c1", "response (vacuolar pH increase)": "inactive"},
      {"compound": "NC(=O)c1cccc(C(=O)N2CCN(c3nc4ccc(F)cc4s3)CC2)c1", "response (vacuolar pH increase)": "inactive"},
      {"compound": "CN(C)C(=O)c1cccc(C(=O)N2CCN(c3nc4ccc(F)cc4s3)CC2)c1", "response (vacuolar pH increase)": "inactive"},
      {"compound": "COCc1ccc(C(=O)N2CCN(c3nc4ccc(F)cc4s3)CC2)o1", "response (vacuolar pH increase)": "inactive"},
      {"compound": "O=C(c1ccc(Br)o1)N1CCN(c2nc3ccc(F)cc3s2)CC1", "response (vacuolar pH increase)": "inactive"},
      {"compound": "Cc1cccc(C(=O)N2CCN(c3nc4ccc(F)cc4s3)CC2)n1", "response (vacuolar pH increase)": "inactive"},
      {"compound": "O=C(c1ccc(C(F)(F)F)o1)N1CCN(c2nc3ccc(F)cc3s2)CC1", "response (vacuolar pH increase)": "inactive"},
      {"compound": "CN(C)S(=O)(=O)c1cccc(C(=O)N2CCN(c3nc4ccc(F)cc4s3)CC2)c1", "response (vacuolar pH increase)": "inactive"},
      {"compound": "O=C(c1cc(Cl)ccn1)N1CCN(c2nc3ccc(F)cc3s2)CC1", "response (vacuolar pH increase)": "inactive"},
      {"compound": "N#Cc1cccc(C(=O)Nc2ccccc2N2CCOCC2)c1", "response (vacuolar pH increase)": "inactive"},
      {"compound": "CN(C)Cc1cccc(C(=O)Nc2ccccc2N2CCOCC2)c1", "response (vacuolar pH increase)": "inactive"},
      {"compound": "O=C(c1ccc(-c2ccccc2)o1)N1CCN(c2nc3ccc(F)cc3s2)CC1", "response (vacuolar pH increase)": "inactive"},
      {"compound": "CN(C)Cc1cccc(C(=O)N2CCN(c3nc4ccc(F)cc4s3)CC2)c1", "response (vacuolar pH increase)": "inactive"},
      {"compound": "NS(=O)(=O)c1cccc(C(=O)N2CCN(c3nc4ccc(F)cc4s3)CC2)c1", "response (vacuolar pH increase)": "inactive"},
      {"compound": "Nc1cncc(C(=O)N2CCN(c3nc4ccc(F)cc4s3)CC2)n1", "response (vacuolar pH increase)": "inactive"},
      {"compound": "Nc1ncc(C(=O)Nc2ccccc2N2CCOCC2)o1", "response (vacuolar pH increase)": "inactive"},
      {"compound": "CS(=O)(=O)c1ccc(C(=O)Nc2ccccc2N2CCOCC2)o1", "response (vacuolar pH increase)": "inactive"},
      {"compound": "Cc1ccc(C(=O)N2CCN(c3nc4ccc(F)cc4s3)CC2)o1", "response (vacuolar pH increase)": "inactive"},
      {"compound": "CS(=O)(=O)c1ccc(C(=O)N2CCN(c3nc4ccc(F)cc4s3)CC2)o1", "response (vacuolar pH increase)": "inactive"},
      {"compound": "COCc1cccc(C(=O)Nc2ccccc2N2CCOCC2)c1", "response (vacuolar pH increase)": "inactive"},
      {"compound": "Cc1cncc(C(=O)Nc2ccccc2N2CCOCC2)n1", "response (vacuolar pH increase)": "inactive"},
      {"compound": "Cc1cncc(C(=O)N2CCN(c3nc4ccc(F)cc4s3)CC2)n1", "response (vacuolar pH increase)": "inactive"},
      {"compound": "Cc1ccc(C(=O)Nc2ccccc2N2CCOCC2)o1", "response (vacuolar pH increase)": "inactive"},
      {"compound": "CN(C)C(=O)c1cccc(C(=O)Nc2ccccc2N2CCOCC2)c1", "response (vacuolar pH increase)": "inactive"},
      {"compound": "O=C(Nc1ccccc1N1CCOCC1)c1cc(C(F)(F)F)ccn1", "response (vacuolar pH increase)": "inactive"},
      {"compound": "O=C(c1cc(C(F)(F)F)ccn1)N1CCN(c2nc3ccc(F)cc3s2)CC1", "response (vacuolar pH increase)": "inactive"},
      {"compound": "O=C(c1cccc(Br)n1)N1CCN(c2nc3ccc(F)cc3s2)CC1", "response (vacuolar pH increase)": "inactive"},
      {"compound": "Cc1cccc(C(=O)Nc2ccccc2N2CCOCC2)n1", "response (vacuolar pH increase)": "inactive"},
      {"compound": "CN(C)Cc1ccc(C(=O)Nc2ccccc2N2CCOCC2)o1", "response (vacuolar pH increase)": "inactive"},
      {"compound": "O=C(c1cncc(Cl)n1)N1CCN(c2nc3ccc(F)cc3s2)CC1", "response (vacuolar pH increase)": "inactive"},
      {"compound": "O=C(Nc1ccccc1N1CCOCC1)c1cncc(Cl)n1", "response (vacuolar pH increase)": "inactive"},
      {"compound": "NS(=O)(=O)c1cccc(C(=O)Nc2ccccc2N2CCOCC2)c1", "response (vacuolar pH increase)": "inactive"},
      {"compound": "O=C(Nc1ccccc1N1CCOCC1)c1cccc(C(F)(F)F)c1", "response (vacuolar pH increase)": "inactive"},
      {"compound": "O=C(Nc1ccccc1N1CCOCC1)c1cccc(Cl)n1", "response (vacuolar pH increase)": "inactive"},
      {"compound": "CN(C)Cc1ccc(C(=O)N2CCN(c3nc4ccc(F)cc4s3)CC2)o1", "response (vacuolar pH increase)": "inactive"},
      {"compound": "CS(=O)(=O)c1cccc(C(=O)Nc2ccccc2N2CCOCC2)c1", "response (vacuolar pH increase)": "inactive"},
      {"compound": "O=C(Nc1ccccc1N1CCOCC1)c1cccc(Br)n1", "response (vacuolar pH increase)": "inactive"},
      {"compound": "O=C(Nc1ccccc1N1CCOCC1)c1ccc(Br)o1", "response (vacuolar pH increase)": "inactive"},
      {"compound": "O=C(Nc1ccccc1N1CCOCC1)c1cccc(C(F)(F)F)n1", "response (vacuolar pH increase)": "inactive"},
      {"compound": "CN(C)S(=O)(=O)c1cccc(C(=O)Nc2ccccc2N2CCOCC2)c1", "response (vacuolar pH increase)": "inactive"},
      {"compound": "COCc1ccc(C(=O)Nc2ccccc2N2CCOCC2)o1", "response (vacuolar pH increase)": "inactive"},
      {"compound": "Cc1ccnc(C(=O)Nc2ccccc2N2CCOCC2)c1", "response (vacuolar pH increase)": "inactive"},
      {"compound": "O=C(Nc1ccccc1N1CCOCC1)c1ccc(-c2ccccc2)o1", "response (vacuolar pH increase)": "inactive"},
      {"compound": "NC(=O)c1cccc(C(=O)Nc2ccccc2N2CCOCC2)c1", "response (vacuolar pH increase)": "inactive"},
      {"compound": "Cc1ccnc(C(=O)N2CCN(c3nc4ccc(F)cc4s3)CC2)c1", "response (vacuolar pH increase)": "inactive"}
    ]},
    {"molecular_target": "S. cerevisiae vacuolar pH, BCECF fluorescence", "assay": "vacuolar alkalinization by V-ATPase blockade – S. cerevisiae, BCECF dye, powder sets 2-3, dose response (AID 651731)", "details": "not given", "units": {"EC50": "µM"}, "values": [
      {"compound": "O=C(c1cccc(C(F)(F)F)c1)N1CCN(c2nc3ccc(F)cc3s2)CC1", "EC50": 31.8},
      {"compound": "O=C(c1cccc(C(F)(F)F)n1)N1CCN(c2nc3ccc(F)cc3s2)CC1", "EC50": 60.5},
      {"compound": "O=C(c1cccc(Cl)n1)N1CCN(c2nc3ccc(F)cc3s2)CC1", "EC50": 37.4}
    ]}
  ]
}
